Test results as given in patent US7129379B2, “3-amino-propoxphenyl derivatives (l)” (William John Louis, Austin and Repatriation Medical Centre, priority 1996, dated 2006).

Assays:
[1] = target: T1, β2 adrenoreceptor (guinea-pig trachea) (Cavia porcellus, UniProt Q8K4Z4); assay: Isoprenaline relaxation of carbachol-contracted isolated guinea-pig trachea (pA2); conditions: isolated guinea-pig tracheal rings, carbachol 10^-6 M contraction, 37° C.; for Kb: read-out: Guinea Pig, pA2 Trachea, B2 (converted)
T1 construct: five rings 1–2 mm in width are cut from the trachea; from tissue; host or cells: isolated guinea-pig tracheal rings (organ bath)
From the text: (§1) Tissue preparation: The animals are killed by a rapid blow to the head followed by cervical dislocation. The chest is opened and the heart and trachea removed and placed in carbonated Krebs-Ringer-Bicarbonate solution (Krebs). Blood is carefully massaged from the chambers of the heart (see L. H. Tung, G. P. Jackman, B. Campbell, S. Louis, D. Iakovidis & W J Louis, J. Cardiovasc. Pharmacol, 21, (2), 484–488, 1993).
All extraneous tissue is dissected away and five rings 1–2 mm in width are cut from the trachea and mounted in sequence on loose loops. The rings are suspended from an isometric transducer set at a resting force of 1.0 g. The rings are then incubated in an organ bath at 37° C. in oxygenated (5% Carbogen) Krebs with 3 changes of Krebs every 10 min for 50 min. Carbachol 10^−6 M is then added to the bath to induce a contraction. Once the contractile force is stable, relaxation is induced by addition of increasing doses of isoprenaline (10^−8 to 10^−5 M) to produce the control dose-response curve. The tissue is then washed in three changes of Krebs every 10 min for 50 min before addition of the drug. After 10 minutes incubation carbachol is added once more and a fresh dose-response to isoprenaline measured. After a further wash of 50 min the control curve is repeated.
(§2) The data is used to calculate the pA2 values against atria and trachea (see Mackay, J. Pharm. Pharmacol., 30, 312–313, 1978). […] The ratio of the values indicates the selectivity of each compound.

[2] = target: T2, β1 adrenoreceptor (guinea-pig atria) (Cavia porcellus, UniProt H0W3H1); assay: Isoprenaline dose-response in isolated guinea-pig atria (pA2); conditions: isolated guinea-pig atria, antagonism of isoprenaline, 37° C.; for Kb: read-out: Guinea Pig, pA2 Atria, B1 (converted)
T2 construct: the atria is dissected from the ventricles; from tissue; host or cells: isolated guinea-pig atria (organ bath)
From the text: as §1
(§3) All extraneous tissue is carefully dissected from the heart, and the atria is dissected from the ventricles. A suture with a loop is tied to each atrium and used to suspend the tissue from an organ bath rod. The other loop is attached to a force transducer loaded with 1 g force. The atria are then maintained in the bath with oxygenated (5% Carbogen) Krebs at 37° C. with changes of Krebs at 10 minute intervals for 50 min. Isoprenaline dose response curves are then measured by addition of isoprenaline in increasing doses from 10^−11 M until a plateau in the response is observed (ca 10^−5.5 M). Doses are increased at two minute intervals and maximum force of contraction and heart rate are recorded. At the end of the dose response curve, the organ bath is flushed with fresh Krebs and washed three times every 10 minutes for 50 minutes. The dose of test drug is then added to the organ bath and allowed to equilibrate for 10 minutes. The isoprenaline does-response curve is then repeated. After washing the atria with Krebs for a further 50 minutes as before, the control does-response curve is repeated in the absence of drug.
as §2

[3] = tested on: β1 adrenoreceptor (guinea-pig atria); assay: as above; conditions: β1 (atria) versus β2 (trachea), from the pA2 values
From the text: as §1, §3, §2

[4] = Duration of beta blockade after intravenous infusion in conscious rats (heart rate response to isoprenaline); assay type: in vivo, Sprague-Dawley rats; conditions: Sprague-Dawley, rat, plasma, iv; conscious male rats, after stopping i.v. infusion; time for inhibition of isoprenaline heart rate response to fall by 50%; read-out: Estimated Plasma Half Life
Protocol: (§4) Healthy male Sprague-Dawley rats were prepared under anaesthesia with indwelling catheters in the carotid artery and jugular vein and allowed to recover for at least 24 h. On the day of the experiment, the arterial catheter was attached to a flexible swivel and then to a pressure transducer for the continuous recording of heart rate and blood pressure. The venous catheters were attached to an infusion pump for drug administration or to a syringe for bolus injections of isoprenaline ([…]). The catheters were suspended out of the animal's way and the rat was allowed to move freely in a small covered enclosure isolated from outside disturbance. When the BP and HR were stable isoprenaline boluses were given at intervals of 10 minutes until the maximum responses in HR were reproducible (±10%). The doses were repeated for at least 40 minutes and the last 5 readings were considered to constitute the baseline response. The doses were continued at the same interval throughtout the test period of a further 150 minutes. Approximately 3.5 minutes before the next dose of isoprenaline the infusion of the test compound was started, to allow for dead volume in the infusion line, and continued for a further 33.5 minutes.
(§5) Rats were used for more than one experiment if their catheters remained patent with daily flushing with heparinised saline, but at least 24 hours separated each experiment.
(§6) Thus rats with the left carotid artery and left jugular vein cannulated can be studied in the conscious state. This allows continuous recording of heart rate and blood pressure before and after intravenous infusions of beta blocking drugs in selected doses. The duration of beta blockade following cessation of an intravenous infusion of a beta blocking drug can be followed by studying the time taken for the increase in heart rate produced by a standard dose of isoprenaline to return to control values following cessation of the beta blocking drug infusion. The maximum recorded inhibition of the heart rate response to isoprenaline during the infusion of the test drug is estimated, and the pharmacodynamic half-life is the time taken for this inhibition to fall by 50% following the cessation of infusion of the drug.
(§7) The half-life of action of the compounds in the systemic circulation as determined as described above in vivo in rats is indicated in Table 3.

[5] = tested on: heart rate response to isoprenaline; assay: Duration of beta blockade after intravenous infusion in conscious rats (heart rate response to isoprenaline); assay type: in vivo, Sprague-Dawley rats; conditions: conscious male rats, after stopping i.v. infusion; time for inhibition of isoprenaline heart rate response to fall by 50%
Protocol: as §4, §5, §6, §7

T2 sequence (H0W3H1 1-470): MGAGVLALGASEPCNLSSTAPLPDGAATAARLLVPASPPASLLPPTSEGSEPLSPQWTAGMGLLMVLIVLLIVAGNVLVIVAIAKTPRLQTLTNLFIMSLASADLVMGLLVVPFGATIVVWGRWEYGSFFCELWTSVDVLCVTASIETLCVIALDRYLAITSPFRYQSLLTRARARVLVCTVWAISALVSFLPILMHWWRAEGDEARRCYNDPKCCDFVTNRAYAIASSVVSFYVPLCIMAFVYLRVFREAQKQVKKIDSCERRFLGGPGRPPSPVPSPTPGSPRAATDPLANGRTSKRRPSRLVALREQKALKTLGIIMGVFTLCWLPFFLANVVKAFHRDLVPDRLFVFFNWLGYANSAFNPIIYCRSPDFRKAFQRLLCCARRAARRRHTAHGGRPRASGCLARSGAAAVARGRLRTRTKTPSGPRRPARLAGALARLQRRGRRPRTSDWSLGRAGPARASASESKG
T1 sequence (Q8K4Z4 whole entry): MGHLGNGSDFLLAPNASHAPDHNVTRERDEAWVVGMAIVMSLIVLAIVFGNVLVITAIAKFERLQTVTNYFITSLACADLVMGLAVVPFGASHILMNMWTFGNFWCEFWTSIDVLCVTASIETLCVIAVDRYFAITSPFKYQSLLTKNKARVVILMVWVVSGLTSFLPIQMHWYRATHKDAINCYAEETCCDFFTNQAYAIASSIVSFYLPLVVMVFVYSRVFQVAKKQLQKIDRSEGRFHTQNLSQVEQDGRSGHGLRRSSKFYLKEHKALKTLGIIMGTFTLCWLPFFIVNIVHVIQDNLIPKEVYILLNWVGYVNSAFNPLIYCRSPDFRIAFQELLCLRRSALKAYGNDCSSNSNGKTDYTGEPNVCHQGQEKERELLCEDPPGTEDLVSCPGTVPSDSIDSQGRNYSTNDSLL

SMILES | Kb [1] [nM] | Kb [2] [nM] | melting point [°C] | Selectivity [3] | half-life [4] [min] | Guinea Pig, pA2 Trachea, B2 [1] | Guinea Pig, pA2 Atria, B1 [2] | Estimated Plasma Half Life [5] [min]
COc1ccc(CCNCC(O)COc2ccc(OCCOCC3CC3)cc2C#N)cc1OC (racemic) [Example 4, 1-(2-cyano-4-(2-cyclopropylmethoxyethoxy)phenoxy)-2-hydroxy-3-(2-(3,4-dimethoxyphenyl)ethylamino)propane] | 39800 | 50.1 | 84 to 86 | 794 | ~15 |  |  | 
CCOCCOc1ccc(OCC(O)CNCCc2ccc(OC)c(OC)c2)cc1 (racemic) [Example 7, 1-(4-(2-ethoxyethoxy)phenoxy)-2-hydroxy-3-(2-(3,4-dimethoxyphenyl)ethylamino)propane] | > 31600 | 63.1 | 140 to 143 | >501 | ~10 |  |  | 
CCOCCOc1ccc(OC[C@@H](O)CNCCc2ccc(OC)c(OC)c2)cc1 [Example 1, S(−)-1-(4-(2-ethoxyethoxy)phenoxy)-2-hydroxy-3-(2-(3,4-dimethoxyphenyl)ethylamino)propane] |  |  |  | 2512 |  | 4.3 | 7.7 | 10 to 20

Continued, in another order:

Kb [1] [nM] | Kb [2] [nM] | melting point [°C] | SMILES | Selectivity [3] | half-life [4] [min] | Guinea Pig, pA2 Trachea, B2 [1] | Guinea Pig, pA2 Atria, B1 [2] | Estimated Plasma Half Life [5] [min]
39800 | 39.8 | 69 to 71 | COc1ccc(OCCNCC(O)COc2ccc(OCCOCC(C)C)cc2C#N)cc1 (racemic) [Example 2, 1-(2-cyano-4-(2-(2-methylpropoxy)ethoxy)phenoxy)-2-hydroxy-3-(2-(4-methoxyphenoxy)ethylamino)propane] | 1000 | ~17 |  |  | 
50100 | 100 | 113 to 115 | COCCOc1ccc(OCC(O)CNCCOc2ccc(OC)cc2)cc1 (racemic) [Example 5, 1-(4-(2-methoxyethoxy)phenoxy)-2-hydroxy-3-(2-(4-methoxyphenoxy)ethylamino)propane] | 501 | 10 to 20 |  |  | 
